In brackets after ≈: the same amount, converted by molar mass.
Columns and labels:
[1] = AA release kinetics, two-compartment system, and mathematical modeling; format: physicochemical
Method: The profiles of AA release from the nanoparticles were evaluated using a two-compartment system composed of a donor compartment (2 mL) and an acceptor compartment (50 mL), separated by a cellulose membrane (1000 Da exclusion pore size) under slight stirring and room temperature (25 °C). Aliquots (1 mL) were periodically collected from the acceptor compartment, with the volume being replaced with 1 mL of water to maintain a constant volume. The aliquots removed were analyzed by HPLC and the results were converted to percentages of released AA. The assays were performed in triplicate. Zero order, first order, Higuchi and Korsmeyer-Peppas mathematical models were used to elucidate the release mechanism of AA from all formulations.

[2] = AA oxidation kinetics induced by peroxymonosulfate (Oxone); format: physicochemical
Method: (§1) The oxidation profiles of AA, alone and encapsulated in the CS and PCL nanoparticles, were evaluated using the method described previously. A stock solution of AA was prepared by dissolving 50 mg of AA in 250 mL of stabilizing solution (EDTA). The absorbance of this solution was measured at 265 nm, with the stabilizing solution used as the background. Separately, a solution of Oxone (potassium peroxymonosulfate, Sigma-Aldrich) was prepared in 50 mL of EDTA solution. An aliquot of AA solution was mixed with 3 mL of Oxone solution and completed to 25 mL with the stabilizing solution, resulting in a solution with 10 μg mL^−1 of AA. The same procedure was performed for the CS and PCL nanoparticles loaded with AA. The absorbance value of the solution containing only AA, minus the absorbance value of the solution containing AA and Oxone, was proportional to the concentration of AA present in the sample. For oxidation studies under aquarium conditions, 9 aquaria were used (3 per treatment), each containing a final volume of 3 L and fitted with an aeration pump. The parameters set for the experiment were 28 °C, pH 7 ± 0.5, and 25 µg mL^−1 of AA (the concentration used in the in vivo assays). At predetermined times, 1 mL aliquots were collected, and the amount of AA was determined using HPLC. The results were presented as % viable ascorbic acid. The assays were performed in triplicate (n = 3).

[3] = AA oxidation under aquarium conditions; format: physicochemical
Method: as §1

[4] = Toxicity evaluation using zebrafish (mortality, LC values, hatching, morphology; 3.12-400 mg/L, 96 h); details: zebrafish (Danio rerio), in vivo
Method: (§2) Preliminary tests were performed to determine the lethal concentration (LC50, mg/L). For this experiment, 24-well polystyrene plates were used, with the embryos being individually exposed to 2 mL of the test solution (n = 24 per group). […] The positive control was 4 mg L^−1 of 3,5-dichloroaniline (≥ 98%, Sigma-Aldrich). The plates were examined every 24 h to determine the mortality of the embryos and larvae, using a stereomicroscope (Model SMZ 2 LED, Optika) and Optika View v. 7.1.1.5 software. […] 1.17.04 software.

[5] = tested on: zebrafish embryos and larvae; experiment: as above
Method: as §2

zebrafish larvae = experiment: Zebrafish motor activity (distance traveled, speed); format: in vivo, Danio rerio
Method: After 96 h, the larvae were distributed individually in 96-well plates, with each well containing 100 µL of embryo medium and 100 µL of test solution (total volume = 200 µL). The behaviors of the larvae were recorded individually for 10 min (at 28 °C) and were analyzed using EthovisionXT software (Noldus). The parameters considered were speed (mm/s) and distance covered.

[6] = tested on: zebrafish embryos and larvae; details: after 96 h of exposure
Method: The embryos were kept individually in 24-well polystyrene plates (n = 24 organisms per group), with addition of 2 mL of test solution to each well. The temperature was maintained at 26 ± 0.2 °C and a light/dark photoperiod of 14/10 h was provided. Determinations were made of mortality and morphological abnormalities including changes in heartbeat, presence of coagulation, undetected tail, change in head formation, disintegration of larvae, pericardial edema, yolk sac edema and opacity, and defective development of the somite.
The total length of the larvae (mm) was measured from the mouth to the terminal portion of the tail.
Mortality was defined as the presence of coagulation, lack of heartbeat, failure of somite development, and undeveloped tail. The hatching rate was calculated considering the successful hatching of embryos in relation to the total number of embryos in each replicate. The observed malformations included pericardial edema, tail deformity, yolk sac edema, and spinal curvature.
The malformation rate was determined considering the percentage of malformed larvae in relation to the total number of larvae that hatched during the test. […] The equipment was previously calibrated using a millimeter scale.

AChE = details: ref Sandahl et al. [76], cited from earlier work

With O=C1O[C@H]([C@@H](O)CO)C(O)=C1O [AA, L-ascorbic acid] the “AA released (acceptor compartment)” value ([1]; after 60 min, 25 °C, water) was 39 ± 0.2%, the “AA released (acceptor compartment)” value ([1]; after 210 min) was 51 ± 0.9% and the “AA concentration after addition of the oxidizing agent” value ([2]; first minute, initial 10 μg mL^−1 AA, peroxymonosulfate) was 2.5 ± 0.01 µg/mL. The “time to total degradation of AA” value ([2]; peroxymonosulfate oxidizing agent) was 7 min, the “time to total degradation of AA” value [3] was 120 min and the AA degraded ([3]; first 60 min) was “almost half”. The LC50 at 96 h [4] was 331 µg/mL (≈ 1880 µM), the mortality ([5]; 400 mg/L, 96 h) was 75% and the “malformations compared to NPs_CS_AA at the same concentrations” value ([5]; 25 and 50 mg L^−1) was “higher numbers of malformations”. The “hatching rate compared to the control group” value ([5]; 100 and 200 mg L^−1, after 96 h) was “more pronounced decreases in hatching”, the LC10 ([5]; 96 h, probit analysis) was 53.0 µg/mL (≈ 301 µM) and the LC20 ([5]; 96 h, probit analysis) was 148.3 µg/mL (≈ 842 µM). For the same compound, the LC30 ([5]; 96 h, probit analysis) was 217.1 µg/mL (≈ 1230 µM), the LC40 ([5]; 96 h, probit analysis) was 275.8 µg/mL (≈ 1570 µM) and the “hatching rate compared to the control group” value ([5]; after 48 h of exposure) was “lower”. For the same compound, the mortality ([5]; all concentrations tested except 400 mg L^−1, 96 h) was “below 30%”, the “distance traveled, dose dependence” value (zebrafish larvae; LC10-LC50, 96 h exposure) was “dose-dependent increase in the distance traveled” and the “swimming speed, dose dependence” value (zebrafish larvae; LC10-LC50, 96 h exposure) was “dose-dependent increases in speed”. The “distance traveled compared to the control group” value (zebrafish larvae; LC50, 96 h exposure) was “significant (p < 0.05) increase in the distance traveled”, the “distance traveled compared to the control group” value (zebrafish larvae; up to the LC30 concentration) was “shorter” and the hatching rate ([6]; LC50 concentration) was 16.6%. The “malformations of embryos and larvae” value ([6]; LC50 dose) was “edema and opacity of the yolk sac, edema of the pericardium, malformation of the tail, and bent spine”.

In the case of CCOP(=S)(OCC)Oc1nc(Cl)c(Cl)cc1Cl [chlorpyrifos], the “relative AChE activity compared to the control” value (AChE; at 0.6 µg L^−1) is listed as 77.2% and the “exposure concentration with significant decreases in swimming activity” value (AChE) is listed as 0.6 µg/L.
